According to the kinase profiling compilation of Christmann-Franck et al. (2016):

Each compound was assayed against AKT1 (human) (UniProt P31749) (assay: radiometric filter-binding kinase assay, Kinase HotSpot). Settings: compound 0.5 µM; ATP 10 µM.
AKT1 (human), sequence (P31749 whole entry, looked up): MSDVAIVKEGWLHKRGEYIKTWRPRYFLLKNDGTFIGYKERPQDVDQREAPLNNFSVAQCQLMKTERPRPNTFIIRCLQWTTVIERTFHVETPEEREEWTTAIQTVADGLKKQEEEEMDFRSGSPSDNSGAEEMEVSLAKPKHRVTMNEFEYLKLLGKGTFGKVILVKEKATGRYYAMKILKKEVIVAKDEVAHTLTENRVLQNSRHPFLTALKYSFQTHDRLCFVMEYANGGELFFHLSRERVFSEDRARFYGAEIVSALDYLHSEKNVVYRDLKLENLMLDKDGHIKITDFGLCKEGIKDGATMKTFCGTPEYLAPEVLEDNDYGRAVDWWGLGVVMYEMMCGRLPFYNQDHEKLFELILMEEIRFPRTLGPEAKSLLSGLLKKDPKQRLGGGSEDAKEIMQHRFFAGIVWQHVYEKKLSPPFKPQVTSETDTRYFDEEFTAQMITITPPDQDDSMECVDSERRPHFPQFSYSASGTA

Row | Compound | residual activity [%]
1 | CSc1nc(-c2ccc(F)cc2)c(-c2ccnc(NC(C)c3ccccc3)c2)[nH]1 (stereo not given) | 101
2 | O=C1Nc2cc(Br)ccc2/C1=C1/Nc2ccccc2/C1=N\O | 97.7
3 | CC(C)(C)c1nc2c3ccc(F)cc3c3c(=O)[nH]ccc3c2[nH]1 | 86.8
4 | O=C(NC(NC(=S)Nc1ccc(F)c([N+](=O)[O-])c1)C(Cl)(Cl)Cl)C(c1ccccc1)c1ccccc1 (stereo not given) | 118
5 | CS(=O)c1ccc(-c2nc(-c3ccc(F)cc3)c(-c3ccncc3)[nH]2)cc1 (stereo not given) | 102

What follows are compounds tested against BRSK1 (human) (UniProt Q8TDC3) in the same assay as above. Settings: compound 0.5 µM; ATP 10 µM.
BRSK1 (human), sequence (Q8TDC3 whole entry, looked up): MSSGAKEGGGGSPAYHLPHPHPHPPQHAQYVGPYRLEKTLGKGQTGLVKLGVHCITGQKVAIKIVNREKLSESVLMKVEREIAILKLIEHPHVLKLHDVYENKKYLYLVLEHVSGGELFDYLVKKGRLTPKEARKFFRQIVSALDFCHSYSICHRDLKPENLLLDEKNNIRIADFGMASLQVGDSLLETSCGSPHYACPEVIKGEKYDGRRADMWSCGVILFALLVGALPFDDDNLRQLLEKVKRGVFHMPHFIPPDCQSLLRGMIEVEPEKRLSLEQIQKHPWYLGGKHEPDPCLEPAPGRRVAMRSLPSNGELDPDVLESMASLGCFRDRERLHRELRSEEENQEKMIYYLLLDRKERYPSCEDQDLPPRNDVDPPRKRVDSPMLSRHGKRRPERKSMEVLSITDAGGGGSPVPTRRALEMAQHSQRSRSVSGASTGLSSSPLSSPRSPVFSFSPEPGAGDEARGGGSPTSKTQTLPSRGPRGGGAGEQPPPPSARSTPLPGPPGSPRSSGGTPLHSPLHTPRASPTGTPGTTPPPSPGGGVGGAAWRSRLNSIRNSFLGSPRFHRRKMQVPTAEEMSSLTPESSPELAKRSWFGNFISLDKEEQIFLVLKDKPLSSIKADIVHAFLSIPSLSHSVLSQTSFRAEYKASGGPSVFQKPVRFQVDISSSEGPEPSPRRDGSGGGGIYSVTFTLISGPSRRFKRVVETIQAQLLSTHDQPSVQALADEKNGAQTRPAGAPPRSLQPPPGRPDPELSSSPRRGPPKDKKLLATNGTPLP

Row | Compound | residual activity [%]
6 | CSc1nc(-c2ccc(F)cc2)c(-c2ccnc(NC(C)c3ccccc3)c2)[nH]1 (stereo not given) | 84.6
7 | O=C1Nc2cc(Br)ccc2/C1=C1/Nc2ccccc2/C1=N\O | 14.6
8 | CC(C)(C)c1nc2c3ccc(F)cc3c3c(=O)[nH]ccc3c2[nH]1 | 15.4
9 | O=C(NC(NC(=S)Nc1ccc(F)c([N+](=O)[O-])c1)C(Cl)(Cl)Cl)C(c1ccccc1)c1ccccc1 (stereo not given) | 98.3
10 | CS(=O)c1ccc(-c2nc(-c3ccc(F)cc3)c(-c3ccncc3)[nH]2)cc1 (stereo not given) | 97.9

These compounds were tested against CDC42BPB (human) (UniProt Q9Y5S2) in the same assay as above. Settings: compound 0.5 µM; ATP 10 µM.

Row | Compound | residual activity [%]
11 | CSc1nc(-c2ccc(F)cc2)c(-c2ccnc(NC(C)c3ccccc3)c2)[nH]1 (stereo not given) | 98.8
12 | O=C1Nc2cc(Br)ccc2/C1=C1/Nc2ccccc2/C1=N\O | 97.5
13 | CC(C)(C)c1nc2c3ccc(F)cc3c3c(=O)[nH]ccc3c2[nH]1 | 96.8
14 | O=C(NC(NC(=S)Nc1ccc(F)c([N+](=O)[O-])c1)C(Cl)(Cl)Cl)C(c1ccccc1)c1ccccc1 (stereo not given) | 97.2
15 | CS(=O)c1ccc(-c2nc(-c3ccc(F)cc3)c(-c3ccncc3)[nH]2)cc1 (stereo not given) | 105

The compounds below were run against CHEK2 (human) (UniProt O96017) in the same assay as above. Settings: compound 0.5 µM; ATP 10 µM.
CHEK2 (human), sequence (O96017 whole entry, looked up): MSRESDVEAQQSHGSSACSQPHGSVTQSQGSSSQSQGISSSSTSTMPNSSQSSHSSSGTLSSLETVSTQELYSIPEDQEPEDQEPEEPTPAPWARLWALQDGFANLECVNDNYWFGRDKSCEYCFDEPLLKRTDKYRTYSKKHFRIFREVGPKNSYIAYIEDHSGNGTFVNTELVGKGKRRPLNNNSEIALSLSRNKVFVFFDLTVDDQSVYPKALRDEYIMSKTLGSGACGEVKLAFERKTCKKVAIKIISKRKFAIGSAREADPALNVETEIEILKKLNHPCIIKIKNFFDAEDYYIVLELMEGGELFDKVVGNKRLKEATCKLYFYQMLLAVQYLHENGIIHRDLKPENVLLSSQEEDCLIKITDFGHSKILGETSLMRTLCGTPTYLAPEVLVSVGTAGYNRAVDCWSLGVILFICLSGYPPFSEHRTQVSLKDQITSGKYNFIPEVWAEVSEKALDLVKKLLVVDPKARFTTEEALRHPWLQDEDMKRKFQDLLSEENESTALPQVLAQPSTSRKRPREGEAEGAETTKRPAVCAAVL

Row | Compound | residual activity [%]
16 | CSc1nc(-c2ccc(F)cc2)c(-c2ccnc(NC(C)c3ccccc3)c2)[nH]1 (stereo not given) | 94.2
17 | O=C1Nc2cc(Br)ccc2/C1=C1/Nc2ccccc2/C1=N\O | 48.3
18 | CC(C)(C)c1nc2c3ccc(F)cc3c3c(=O)[nH]ccc3c2[nH]1 | 0.717
19 | O=C(NC(NC(=S)Nc1ccc(F)c([N+](=O)[O-])c1)C(Cl)(Cl)Cl)C(c1ccccc1)c1ccccc1 (stereo not given) | 97.6
20 | CS(=O)c1ccc(-c2nc(-c3ccc(F)cc3)c(-c3ccncc3)[nH]2)cc1 (stereo not given) | 99.6

These compounds were tested against CHUK (human) (UniProt O15111) in the same assay as above. Settings: compound 0.5 µM; ATP 10 µM.
CHUK (human), sequence (O15111 whole entry, looked up): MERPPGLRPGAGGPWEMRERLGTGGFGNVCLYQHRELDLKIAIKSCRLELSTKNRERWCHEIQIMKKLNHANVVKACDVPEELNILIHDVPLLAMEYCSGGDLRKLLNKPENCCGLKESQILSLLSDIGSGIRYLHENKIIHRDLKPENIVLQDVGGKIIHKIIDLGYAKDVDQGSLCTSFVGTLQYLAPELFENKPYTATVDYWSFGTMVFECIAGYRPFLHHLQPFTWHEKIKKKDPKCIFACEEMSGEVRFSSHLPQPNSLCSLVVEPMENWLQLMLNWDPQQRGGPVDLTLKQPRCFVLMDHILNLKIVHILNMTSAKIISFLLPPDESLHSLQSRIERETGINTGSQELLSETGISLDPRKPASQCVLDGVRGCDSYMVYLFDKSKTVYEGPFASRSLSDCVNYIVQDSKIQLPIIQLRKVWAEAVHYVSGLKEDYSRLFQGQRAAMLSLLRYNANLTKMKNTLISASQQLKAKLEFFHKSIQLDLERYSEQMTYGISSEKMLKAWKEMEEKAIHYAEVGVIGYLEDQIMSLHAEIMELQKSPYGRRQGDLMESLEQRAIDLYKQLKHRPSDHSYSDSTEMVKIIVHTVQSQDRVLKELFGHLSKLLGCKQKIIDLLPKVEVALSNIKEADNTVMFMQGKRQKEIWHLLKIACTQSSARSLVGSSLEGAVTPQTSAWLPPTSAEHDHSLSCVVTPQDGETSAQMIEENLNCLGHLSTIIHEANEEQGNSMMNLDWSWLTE

Row | Compound | residual activity [%]
21 | CSc1nc(-c2ccc(F)cc2)c(-c2ccnc(NC(C)c3ccccc3)c2)[nH]1 (stereo not given) | 98.4
22 | O=C1Nc2cc(Br)ccc2/C1=C1/Nc2ccccc2/C1=N\O | 104
23 | CC(C)(C)c1nc2c3ccc(F)cc3c3c(=O)[nH]ccc3c2[nH]1 | 102
24 | O=C(NC(NC(=S)Nc1ccc(F)c([N+](=O)[O-])c1)C(Cl)(Cl)Cl)C(c1ccccc1)c1ccccc1 (stereo not given) | 91.5
25 | CS(=O)c1ccc(-c2nc(-c3ccc(F)cc3)c(-c3ccncc3)[nH]2)cc1 (stereo not given) | 100

These compounds were tested against CLK4 (human) (UniProt Q9HAZ1) in the same assay as above. Settings: compound 0.5 µM; ATP 10 µM.
CLK4 (human), sequence (Q9HAZ1 whole entry, looked up): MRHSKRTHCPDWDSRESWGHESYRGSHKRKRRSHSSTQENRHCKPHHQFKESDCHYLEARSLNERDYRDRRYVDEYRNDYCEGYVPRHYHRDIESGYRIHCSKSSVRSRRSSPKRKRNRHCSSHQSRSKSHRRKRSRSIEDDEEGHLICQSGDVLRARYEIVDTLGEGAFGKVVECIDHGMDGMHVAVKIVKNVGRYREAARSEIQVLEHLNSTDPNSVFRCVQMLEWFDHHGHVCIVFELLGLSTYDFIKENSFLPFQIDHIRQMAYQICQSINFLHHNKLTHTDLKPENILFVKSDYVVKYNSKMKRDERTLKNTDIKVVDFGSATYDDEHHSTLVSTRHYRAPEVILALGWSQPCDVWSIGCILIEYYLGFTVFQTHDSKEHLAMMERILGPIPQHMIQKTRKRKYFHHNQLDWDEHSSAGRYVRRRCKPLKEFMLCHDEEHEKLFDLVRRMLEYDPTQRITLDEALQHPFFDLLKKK

Row | Compound | residual activity [%]
26 | CSc1nc(-c2ccc(F)cc2)c(-c2ccnc(NC(C)c3ccccc3)c2)[nH]1 (stereo not given) | 79.2
27 | O=C1Nc2cc(Br)ccc2/C1=C1/Nc2ccccc2/C1=N\O | 97
28 | CC(C)(C)c1nc2c3ccc(F)cc3c3c(=O)[nH]ccc3c2[nH]1 | 70.7
29 | O=C(NC(NC(=S)Nc1ccc(F)c([N+](=O)[O-])c1)C(Cl)(Cl)Cl)C(c1ccccc1)c1ccccc1 (stereo not given) | 105
30 | CS(=O)c1ccc(-c2nc(-c3ccc(F)cc3)c(-c3ccncc3)[nH]2)cc1 (stereo not given) | 98.7

These compounds were tested against CSNK1G1 (human) (UniProt Q9HCP0) in the same assay as above. Settings: compound 0.5 µM; ATP 10 µM.
CSNK1G1 (human), sequence (Q9HCP0 whole entry, looked up): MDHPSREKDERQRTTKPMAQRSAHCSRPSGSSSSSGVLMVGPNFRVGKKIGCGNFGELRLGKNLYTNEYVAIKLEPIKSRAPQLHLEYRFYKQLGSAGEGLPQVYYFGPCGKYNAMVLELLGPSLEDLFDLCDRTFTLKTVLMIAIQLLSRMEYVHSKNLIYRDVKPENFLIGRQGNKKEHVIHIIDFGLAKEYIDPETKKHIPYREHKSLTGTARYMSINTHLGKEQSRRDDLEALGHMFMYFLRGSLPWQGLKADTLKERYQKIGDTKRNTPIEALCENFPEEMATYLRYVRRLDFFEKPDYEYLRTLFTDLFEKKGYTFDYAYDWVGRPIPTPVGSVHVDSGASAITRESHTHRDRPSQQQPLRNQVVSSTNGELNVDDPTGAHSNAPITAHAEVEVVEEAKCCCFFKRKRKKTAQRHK

Row | Compound | residual activity [%]
31 | CSc1nc(-c2ccc(F)cc2)c(-c2ccnc(NC(C)c3ccccc3)c2)[nH]1 (stereo not given) | 67.2
32 | O=C1Nc2cc(Br)ccc2/C1=C1/Nc2ccccc2/C1=N\O | 87.6
33 | CC(C)(C)c1nc2c3ccc(F)cc3c3c(=O)[nH]ccc3c2[nH]1 | 96.5
34 | O=C(NC(NC(=S)Nc1ccc(F)c([N+](=O)[O-])c1)C(Cl)(Cl)Cl)C(c1ccccc1)c1ccccc1 (stereo not given) | 83.3
35 | CS(=O)c1ccc(-c2nc(-c3ccc(F)cc3)c(-c3ccncc3)[nH]2)cc1 (stereo not given) | 95.7

What follows are compounds tested against CSNK1G3 (human) (UniProt Q9Y6M4) in the same assay as above. Settings: compound 0.5 µM; ATP 10 µM.
CSNK1G3 (human), sequence (Q9Y6M4 whole entry, looked up): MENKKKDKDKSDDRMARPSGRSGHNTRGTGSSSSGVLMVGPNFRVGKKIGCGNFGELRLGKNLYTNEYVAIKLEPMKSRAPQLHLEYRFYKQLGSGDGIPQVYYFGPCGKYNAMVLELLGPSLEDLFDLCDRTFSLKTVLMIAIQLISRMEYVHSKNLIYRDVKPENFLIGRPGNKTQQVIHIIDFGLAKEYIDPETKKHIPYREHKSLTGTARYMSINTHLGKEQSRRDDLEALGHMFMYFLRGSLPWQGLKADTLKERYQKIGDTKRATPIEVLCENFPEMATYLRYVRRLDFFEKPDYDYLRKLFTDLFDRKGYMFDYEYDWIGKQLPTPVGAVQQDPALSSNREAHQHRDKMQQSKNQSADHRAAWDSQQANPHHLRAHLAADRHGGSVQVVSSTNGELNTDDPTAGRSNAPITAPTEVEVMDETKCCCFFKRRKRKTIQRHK

Row | Compound | residual activity [%]
36 | CSc1nc(-c2ccc(F)cc2)c(-c2ccnc(NC(C)c3ccccc3)c2)[nH]1 (stereo not given) | 58.4
37 | O=C1Nc2cc(Br)ccc2/C1=C1/Nc2ccccc2/C1=N\O | 78.3
38 | CC(C)(C)c1nc2c3ccc(F)cc3c3c(=O)[nH]ccc3c2[nH]1 | 105
39 | O=C(NC(NC(=S)Nc1ccc(F)c([N+](=O)[O-])c1)C(Cl)(Cl)Cl)C(c1ccccc1)c1ccccc1 (stereo not given) | 87.7
40 | CS(=O)c1ccc(-c2nc(-c3ccc(F)cc3)c(-c3ccncc3)[nH]2)cc1 (stereo not given) | 103

What follows are compounds tested against DCLK2 (human) (UniProt Q8N568) in the same assay as above. Settings: compound 0.5 µM; ATP 10 µM.

Row | Compound | residual activity [%]
41 | CSc1nc(-c2ccc(F)cc2)c(-c2ccnc(NC(C)c3ccccc3)c2)[nH]1 (stereo not given) | 92.7
42 | O=C1Nc2cc(Br)ccc2/C1=C1/Nc2ccccc2/C1=N\O | 99.1
43 | CC(C)(C)c1nc2c3ccc(F)cc3c3c(=O)[nH]ccc3c2[nH]1 | 65.8
44 | O=C(NC(NC(=S)Nc1ccc(F)c([N+](=O)[O-])c1)C(Cl)(Cl)Cl)C(c1ccccc1)c1ccccc1 (stereo not given) | 108
45 | CS(=O)c1ccc(-c2nc(-c3ccc(F)cc3)c(-c3ccncc3)[nH]2)cc1 (stereo not given) | 99.8

Each compound was assayed against DDR2 (human) (UniProt Q16832) in the same assay as above. Settings: compound 0.5 µM; ATP 10 µM.
DDR2 (human), sequence (Q16832 whole entry, looked up): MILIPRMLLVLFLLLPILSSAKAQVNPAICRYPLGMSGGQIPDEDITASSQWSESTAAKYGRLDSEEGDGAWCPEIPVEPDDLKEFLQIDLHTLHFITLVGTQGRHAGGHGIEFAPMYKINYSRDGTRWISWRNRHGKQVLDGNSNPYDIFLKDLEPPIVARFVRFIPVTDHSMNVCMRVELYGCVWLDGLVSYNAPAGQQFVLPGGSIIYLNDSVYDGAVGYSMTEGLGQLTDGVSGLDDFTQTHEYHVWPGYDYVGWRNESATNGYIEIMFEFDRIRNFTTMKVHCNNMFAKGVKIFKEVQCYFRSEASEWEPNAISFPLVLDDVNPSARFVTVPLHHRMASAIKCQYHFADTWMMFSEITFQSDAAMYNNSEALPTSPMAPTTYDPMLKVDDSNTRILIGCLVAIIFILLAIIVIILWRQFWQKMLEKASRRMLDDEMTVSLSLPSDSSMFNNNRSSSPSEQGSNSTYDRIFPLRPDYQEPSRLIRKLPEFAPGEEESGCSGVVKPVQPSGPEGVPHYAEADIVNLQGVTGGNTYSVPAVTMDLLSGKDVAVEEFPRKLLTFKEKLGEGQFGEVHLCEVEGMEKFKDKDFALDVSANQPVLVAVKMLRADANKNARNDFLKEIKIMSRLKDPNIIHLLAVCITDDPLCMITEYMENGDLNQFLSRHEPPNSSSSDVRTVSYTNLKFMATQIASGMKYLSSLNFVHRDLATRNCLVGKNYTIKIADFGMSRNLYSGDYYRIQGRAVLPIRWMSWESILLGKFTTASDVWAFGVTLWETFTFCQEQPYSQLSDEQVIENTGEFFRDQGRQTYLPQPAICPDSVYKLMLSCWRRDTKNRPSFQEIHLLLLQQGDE

Row | Compound | residual activity [%]
46 | CSc1nc(-c2ccc(F)cc2)c(-c2ccnc(NC(C)c3ccccc3)c2)[nH]1 (stereo not given) | 89.8
47 | O=C1Nc2cc(Br)ccc2/C1=C1/Nc2ccccc2/C1=N\O | 69.7
48 | O=C(NC(NC(=S)Nc1ccc(F)c([N+](=O)[O-])c1)C(Cl)(Cl)Cl)C(c1ccccc1)c1ccccc1 (stereo not given) | 96.4
49 | CS(=O)c1ccc(-c2nc(-c3ccc(F)cc3)c(-c3ccncc3)[nH]2)cc1 (stereo not given) | 103

Each compound was assayed against DYRK1B (human) (UniProt Q9Y463) in the same assay as above. Settings: compound 0.5 µM; ATP 10 µM.

Row | Compound | residual activity [%]
50 | CSc1nc(-c2ccc(F)cc2)c(-c2ccnc(NC(C)c3ccccc3)c2)[nH]1 (stereo not given) | 84.6
